Measured values reported in the supplement of paper PMC11451515.

Key:
Details in all cases: 48 h
[1] = tested on: P12-Ichikawa; test: AUC of viability dose-response curve (% viability x log10 dose units); higher = less sensitive
Outline: (§1)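 Leukemia cells adapted to each medium were seeded in 1536-well plates (500 or 1000 cells/well) and given library compounds in DMSO for 48 h at 37°C. The 11 threefold doses spanned 47 μM to 0.79 nM, and CellTiter-Glo One luminescence was normalised per plate to DMSO and cell-free wells before four-parameter log-logistic fitting on log10 dose. Area under the curve was integrated with the trapezoidal rule, scaling curves above full viability and removing curves that failed quality control.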

[2] = tested on: SEM cells; test: as above
Outline: as §1

[3] = tested on: NOMO1; test: as above
Outline: as §1

[4] = tested on: SEM cells; test: cell viability relative to DMSO control; higher = less cytotoxic
Outline: (§2)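 Leukemia cells (NOMO1 or SEM, 500 cells/well; P12-Ichikawa, 1000 cells/well) were seeded in 5 μl in 1536-well plates after at least four passages of adaptation to each medium. They received library compounds in DMSO by pin dosing, 11 threefold points from 47 μM to 0.79 nM. Luminescence with CellTiter-Glo One was read after 48 h at 37°C. Viability is stated per plate relative to DMSO wells, with cell-free wells as background.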

[5] = tested on: P12-Ichikawa; test: as above
Outline: as §2

[6] = tested on: NOMO1; test: as above
Outline: as §2

NC1(c2ccc(-c3nc4ccn5c(=O)[nH]nc5c4cc3-c3ccccc3)cc2)CCC1
AUC of viability dose-response curve
Details | [1] | [2] | [3]
HPLM + 10% dialyzed FBS | 396 | 322 | 392
RPMI 5 mM glucose + 10% FBS | 366 | 318 | 451
RPMI 5 mM glucose + 10% dialyzed FBS | 361 | 298 | 423

[4], HPLM + 10% dialyzed FBS
Details | cell viability [%]
0.000781 µM | 123
0.00234 µM | 138
0.00702 µM | 125
0.0211 µM | 74.7
0.0632 µM | 125
0.19 µM | 104
0.569 µM | 78.3
1.71 µM | 65.1
5.12 µM | 43.8
15.4 µM | 37.9
46.1 µM | 14.4

CCCC1=NC(=C2[N]1NC(=N\C2=O)/C3=CC(=CC=C3OCC)[S+]([O-])(=O)N4CCN(CC)CC4)C
AUC of viability dose-response curve
Details | [1] | [2] | [3]
HPLM + 10% dialyzed FBS | 421 | 417 | 402
RPMI 5 mM glucose + 10% FBS | 402 | 407 | 409
RPMI 5 mM glucose + 10% dialyzed FBS | 399 | 401 | 406

[4], RPMI 5 mM glucose + 10% dialyzed FBS
Details | cell viability [%]
0.000781 µM | 125
0.00234 µM | 115
0.00702 µM | 128
0.0211 µM | 131
0.0632 µM | 143
0.19 µM | 134
0.569 µM | 140
1.71 µM | 145
5.12 µM | 106
15.4 µM | 10.4
46.1 µM | 6.51

O=c1c(-c2ccc(O)cc2)coc2cc(O[C@@H]3O[C@H](CO)[C@@H](O)[C@H](O)[C@H]3O)ccc12
AUC of viability dose-response curve
Details | [1] | [2] | [3]
HPLM + 10% dialyzed FBS | 473 | 459 | 456
RPMI 5 mM glucose + 10% FBS | 469 | 450 | 468
RPMI 5 mM glucose + 10% dialyzed FBS | 470 | 449 | 467

cell viability [%], [4]
Details | HPLM + 10% dialyzed FBS | RPMI 5 mM glucose + 10% dialyzed FBS
0.000781 µM | 114 | 124
0.00234 µM | 115 | 124
0.00702 µM | 115 | 128
0.0211 µM | 122 | 119
0.0632 µM | 114 | 135
0.19 µM | 120 | 137
0.569 µM | 123 | 126
1.71 µM | 110 | 111
5.12 µM | 121 | 118
15.4 µM | 91.1 | 100
46.1 µM | 79.1 | 70.1

CC(C)N(CCNC(=O)CN1CCCC1=O)C(C)C
AUC of viability dose-response curve
Details | [1] | [2] | [3]
HPLM + 10% dialyzed FBS | 460 | 477 | 430
RPMI 5 mM glucose + 10% FBS | 453 | 460 | 456
RPMI 5 mM glucose + 10% dialyzed FBS | 435 | 476 | 461

CN1[C@@H]2CC[C@H]1CC(OC(=O)c1c[nH]c3ccccc13)C2 (stereo not given in full)
AUC of viability dose-response curve
Details | HPLM + 10% dialyzed FBS | RPMI 5 mM glucose + 10% FBS | RPMI 5 mM glucose + 10% dialyzed FBS
[1] | 463 | 468 | 466
[3] | 436 | 459 | 444

cell viability [%]
Details | [4] | [5] | [6]
HPLM + 10% dialyzed FBS, 0.000781 µM | 111 | 125 | –
HPLM + 10% dialyzed FBS, 0.00234 µM | 109 | 127 | –
HPLM + 10% dialyzed FBS, 0.00702 µM | 118 | 119 | –
HPLM + 10% dialyzed FBS, 0.0211 µM | 25.9 | 96.1 | –
HPLM + 10% dialyzed FBS, 0.0632 µM | 130 | 110 | –
HPLM + 10% dialyzed FBS, 0.19 µM | 130 | 117 | –
HPLM + 10% dialyzed FBS, 0.569 µM | 126 | 116 | –
HPLM + 10% dialyzed FBS, 1.71 µM | 117 | 126 | –
HPLM + 10% dialyzed FBS, 5.12 µM | 114 | 111 | –
HPLM + 10% dialyzed FBS, 15.4 µM | 114 | 114 | –
HPLM + 10% dialyzed FBS, 46.1 µM | 124 | 111 | –
RPMI 5 mM glucose + 10% FBS, 0.000781 µM | 113 | – | 115
RPMI 5 mM glucose + 10% FBS, 0.00234 µM | 115 | – | 125
RPMI 5 mM glucose + 10% FBS, 0.00702 µM | 124 | – | 120
RPMI 5 mM glucose + 10% FBS, 0.0211 µM | 17.8 | – | 114
RPMI 5 mM glucose + 10% FBS, 0.0632 µM | 123 | – | 129
RPMI 5 mM glucose + 10% FBS, 0.19 µM | 116 | – | 112
RPMI 5 mM glucose + 10% FBS, 0.569 µM | 111 | – | 106
RPMI 5 mM glucose + 10% FBS, 1.71 µM | 119 | – | 117
RPMI 5 mM glucose + 10% FBS, 5.12 µM | 137 | – | 124
RPMI 5 mM glucose + 10% FBS, 15.4 µM | 98.6 | – | 114
RPMI 5 mM glucose + 10% FBS, 46.1 µM | 93.6 | – | 99.3
RPMI 5 mM glucose + 10% dialyzed FBS, 0.000781 µM | – | 120 | 119
RPMI 5 mM glucose + 10% dialyzed FBS, 0.00234 µM | – | 115 | 127
RPMI 5 mM glucose + 10% dialyzed FBS, 0.00702 µM | – | 121 | 119
RPMI 5 mM glucose + 10% dialyzed FBS, 0.0211 µM | – | 107 | 107
RPMI 5 mM glucose + 10% dialyzed FBS, 0.0632 µM | – | 116 | 109
RPMI 5 mM glucose + 10% dialyzed FBS, 0.19 µM | – | 116 | 115
RPMI 5 mM glucose + 10% dialyzed FBS, 0.569 µM | – | 120 | 113
RPMI 5 mM glucose + 10% dialyzed FBS, 1.71 µM | – | 117 | 118
RPMI 5 mM glucose + 10% dialyzed FBS, 5.12 µM | – | 118 | 119
RPMI 5 mM glucose + 10% dialyzed FBS, 15.4 µM | – | 113 | 104
RPMI 5 mM glucose + 10% dialyzed FBS, 46.1 µM | – | 107 | 94.9

O=C(Nc1cccc(Cl)c1)Nc1ncc(CCNc2ncnc3ccsc23)s1
AUC of viability dose-response curve
Details | [1] | [2] | [3]
HPLM + 10% dialyzed FBS | 290 | 301 | 362
RPMI 5 mM glucose + 10% FBS | 306 | 272 | 374
RPMI 5 mM glucose + 10% dialyzed FBS | 301 | 274 | 385

COC1CCC(C(=O)c2ccc3nc4c(cc3c2)CCCO4)CC1 (stereo not given)
AUC of viability dose-response curve
Details | [1] | [2] | [3]
HPLM + 10% dialyzed FBS | 458 | 458 | 421
RPMI 5 mM glucose + 10% FBS | 453 | 422 | 430
RPMI 5 mM glucose + 10% dialyzed FBS | 460 | 438 | 437
